Assay results: ChEMBL document CHEMBL1133772, “In vitro and in vivo evaluation of dihydropyrimidinone C-5 amides as potent and selective alpha(1A) receptor antagonists for the treatment of benign prostatic hyperplasia” (J Med Chem, 2000)
pKi: −log10 of the molar value.

system: not listed separately; assay: Bioavailability in rat; assay type: ADME, organism-based; settings: in vivo

Structure (SMILES)	bioavailability [%]
COCC1=C(C(=O)NCCCN2CCC(c3ccccn3)CC2)[C@@H](c2ccc(F)c(F)c2)NC(=O)N1	0
CC1=C(C(=O)NCCCN2CCC(c3ccc(F)cc3)CC2)[C@@H](c2ccc(F)c(F)c2)NC(=O)N1	< 6
CN1C=C(C(=O)NCCCN2CCC(C#N)(c3ccc(F)cc3)CC2)[C@@H](c2ccc(F)c(F)c2)NC1=O	< 6
CC1=C(C(=O)NCCCN2CCC(c3ccc(F)cc3C#N)CC2)[C@@H](c2ccc(F)c(F)c2)NC(=O)N1	0
O=C1NC=C(C(=O)NCCCN2CCC(c3ccc(F)cc3)CC2)[C@@H](c2ccc(F)c(F)c2)N1	0

system: not listed separately; assay: Bioavailability in dog (dose 0.5 mg/kg i.v. and 1 mg/kg p.o.); assay type: ADME, organism-based, Canis lupus familiaris; settings: in vivo, po

Structure (SMILES)	bioavailability [%]
COCC1=C(C(=O)NCCCN2CCC(c3ccccn3)CC2)[C@@H](c2ccc(F)c(F)c2)NC(=O)N1	48

system: not listed separately; assay: Plasma half-life from intravenous dose in dog.; assay type: ADME, organism-based, Canis lupus familiaris; settings: not given

Structure (SMILES)	half-life [h]
COCC1=C(C(=O)NCCCN2CCC(c3ccccn3)CC2)[C@@H](c2ccc(F)c(F)c2)NC(=O)N1	5.58

molecular target: T1, Alpha-1D adrenergic receptor (Homo sapiens, UniProt P25100); assay: Evaluated for the ability to displace [125I]- HEAT from human cloned Alpha-1D adrenergic receptor stably expressed in HEK cells.; assay type: cell-based, HEK293; settings: not given
T1 sequence (P25100 whole entry): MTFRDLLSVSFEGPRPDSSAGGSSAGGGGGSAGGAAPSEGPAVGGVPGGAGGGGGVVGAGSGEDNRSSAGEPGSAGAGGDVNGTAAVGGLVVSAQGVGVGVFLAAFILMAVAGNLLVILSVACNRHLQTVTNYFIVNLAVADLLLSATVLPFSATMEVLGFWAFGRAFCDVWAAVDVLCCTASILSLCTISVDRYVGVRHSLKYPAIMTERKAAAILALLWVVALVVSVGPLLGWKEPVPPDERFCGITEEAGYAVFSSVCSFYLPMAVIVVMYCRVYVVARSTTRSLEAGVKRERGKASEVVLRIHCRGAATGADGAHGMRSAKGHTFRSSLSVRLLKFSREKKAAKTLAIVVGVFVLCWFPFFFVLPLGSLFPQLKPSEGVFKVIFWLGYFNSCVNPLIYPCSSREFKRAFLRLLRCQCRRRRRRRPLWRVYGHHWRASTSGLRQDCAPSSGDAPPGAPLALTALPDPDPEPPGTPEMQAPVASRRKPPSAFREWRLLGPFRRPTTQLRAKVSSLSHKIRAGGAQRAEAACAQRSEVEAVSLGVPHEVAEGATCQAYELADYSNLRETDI

Structure (SMILES)	pKi
COCC1=C(C(=O)NCCCN2CCC(c3ccccn3)CC2)[C@@H](c2ccc(F)c(F)c2)NC(=O)N1	6.31
CC1=C(C(=O)NCCCN2CCC(c3ccc(F)cc3C#N)CC2)[C@@H](c2ccc(F)c(F)c2)NC(=O)N1	6.67
O=C1NC=C(C(=O)NCCCN2CCC(c3ccc(F)cc3)CC2)[C@@H](c2ccc(F)c(F)c2)N1	7.17

molecular target: T1, Alpha-1D adrenergic receptor; assay: Ability to displace [125I]- HEAT from human cloned Alpha-1D adrenergic receptor stably expressed in HEK cells.; assay type: cell-based, HEK293; settings: not given

Structure (SMILES)	pKi
CC1=C(C(=O)NCCCN2CCC(c3ccc(F)cc3)CC2)[C@@H](c2ccc(F)c(F)c2)NC(=O)N1	6.62
CN1C=C(C(=O)NCCCN2CCC(C#N)(c3ccc(F)cc3)CC2)[C@@H](c2ccc(F)c(F)c2)NC1=O	6.62

molecular target: T2, Alpha-1A adrenergic receptor (Homo sapiens, UniProt P35348); assay: Evaluated for the ability to displace [125I]- HEAT from human cloned Alpha-1A adrenergic receptor stably expressed in CHO cells.; assay type: cell-based; settings: not given
T2 sequence (P35348 whole entry): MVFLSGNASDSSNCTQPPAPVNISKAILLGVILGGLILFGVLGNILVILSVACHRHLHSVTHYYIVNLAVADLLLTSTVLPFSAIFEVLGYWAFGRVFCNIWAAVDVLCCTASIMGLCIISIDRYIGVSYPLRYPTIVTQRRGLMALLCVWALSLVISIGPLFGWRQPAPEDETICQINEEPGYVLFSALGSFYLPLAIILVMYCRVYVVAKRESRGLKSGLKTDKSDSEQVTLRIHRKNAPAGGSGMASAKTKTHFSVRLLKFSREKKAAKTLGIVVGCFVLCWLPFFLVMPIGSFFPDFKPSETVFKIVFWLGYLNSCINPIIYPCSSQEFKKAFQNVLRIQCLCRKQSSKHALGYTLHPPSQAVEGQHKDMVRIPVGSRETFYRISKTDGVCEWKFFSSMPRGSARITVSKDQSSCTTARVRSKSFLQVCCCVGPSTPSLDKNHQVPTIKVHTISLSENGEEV

Structure (SMILES)	pKi
COCC1=C(C(=O)NCCCN2CCC(c3ccccn3)CC2)[C@@H](c2ccc(F)c(F)c2)NC(=O)N1	9.35
CC1=C(C(=O)NCCCN2CCC(c3ccc(F)cc3C#N)CC2)[C@@H](c2ccc(F)c(F)c2)NC(=O)N1	9.77
O=C1NC=C(C(=O)NCCCN2CCC(c3ccc(F)cc3)CC2)[C@@H](c2ccc(F)c(F)c2)N1	9.77

molecular target: T3, Alpha-1B adrenergic receptor (Homo sapiens, UniProt P35368); assay: Ability to displace [125I]- HEAT from human cloned Alpha-1B adrenergic receptor stably expressed in LM cells.; assay type: cell-based; settings: not given
T3 sequence (P35368 whole entry): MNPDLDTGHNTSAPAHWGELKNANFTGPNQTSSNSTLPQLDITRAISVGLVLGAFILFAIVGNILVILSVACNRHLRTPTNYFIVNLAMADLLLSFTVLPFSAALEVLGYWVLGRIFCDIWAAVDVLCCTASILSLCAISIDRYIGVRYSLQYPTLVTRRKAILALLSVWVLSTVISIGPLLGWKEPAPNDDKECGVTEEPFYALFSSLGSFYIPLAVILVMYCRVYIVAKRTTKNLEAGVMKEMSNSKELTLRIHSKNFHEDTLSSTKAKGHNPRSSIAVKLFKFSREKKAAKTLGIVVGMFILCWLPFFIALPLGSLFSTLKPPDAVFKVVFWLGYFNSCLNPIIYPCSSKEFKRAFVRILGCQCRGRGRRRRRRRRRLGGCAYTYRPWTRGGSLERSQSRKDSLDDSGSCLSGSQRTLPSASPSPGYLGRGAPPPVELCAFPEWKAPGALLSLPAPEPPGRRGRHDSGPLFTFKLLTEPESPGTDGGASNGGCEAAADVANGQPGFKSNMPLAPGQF

Structure (SMILES)	pKi
CN1C=C(C(=O)NCCCN2CCC(C#N)(c3ccc(F)cc3)CC2)[C@@H](c2ccc(F)c(F)c2)NC1=O	7.28

molecular target: T3, Alpha-1B adrenergic receptor; assay: Evaluated for the ability to displace [125I]- HEAT from human cloned Alpha-1B adrenergic receptor stably expressed in LM cells.; assay type: cell-based; settings: not given

Structure (SMILES)	pKi
COCC1=C(C(=O)NCCCN2CCC(c3ccccn3)CC2)[C@@H](c2ccc(F)c(F)c2)NC(=O)N1	6.63
CC1=C(C(=O)NCCCN2CCC(c3ccc(F)cc3)CC2)[C@@H](c2ccc(F)c(F)c2)NC(=O)N1	7.40
CC1=C(C(=O)NCCCN2CCC(c3ccc(F)cc3C#N)CC2)[C@@H](c2ccc(F)c(F)c2)NC(=O)N1	7.06
O=C1NC=C(C(=O)NCCCN2CCC(c3ccc(F)cc3)CC2)[C@@H](c2ccc(F)c(F)c2)N1	7.62

molecular target: T2, Alpha-1A adrenergic receptor; assay: Ability to displace [125I]- HEAT from human cloned Alpha-1A adrenergic receptor stably expressed in CHO cells.; assay type: cell-based; settings: not given

Structure (SMILES)	pKi
CC1=C(C(=O)NCCCN2CCC(c3ccc(F)cc3)CC2)[C@@H](c2ccc(F)c(F)c2)NC(=O)N1	9.41
CN1C=C(C(=O)NCCCN2CCC(C#N)(c3ccc(F)cc3)CC2)[C@@H](c2ccc(F)c(F)c2)NC1=O	9.92

species: Canis familiaris; assay: Compound was evaluated for the inhibition of phenylephrine-induced contraction in dog.; assay type: functional, Canis lupus familiaris; settings: not given

Structure (SMILES)	AD50 [µg/kg]
CC1=C(C(=O)NCCCN2CCC(c3ccc(F)cc3)CC2)[C@@H](c2ccc(F)c(F)c2)NC(=O)N1	7
CC1=C(C(=O)NCCCN2CCC(c3ccc(F)cc3C#N)CC2)[C@@H](c2ccc(F)c(F)c2)NC(=O)N1	5
O=C1NC=C(C(=O)NCCCN2CCC(c3ccc(F)cc3)CC2)[C@@H](c2ccc(F)c(F)c2)N1	21

species: Canis familiaris; assay: Dose effecting a 20 mmHg change in diastolic blood pressure in dog.; assay type: functional, Canis lupus familiaris, Artery; settings: not given

Structure (SMILES)	DBP-20 [µg/kg]
CC1=C(C(=O)NCCCN2CCC(c3ccc(F)cc3)CC2)[C@@H](c2ccc(F)c(F)c2)NC(=O)N1	143
CC1=C(C(=O)NCCCN2CCC(c3ccc(F)cc3C#N)CC2)[C@@H](c2ccc(F)c(F)c2)NC(=O)N1	>300
O=C1NC=C(C(=O)NCCCN2CCC(c3ccc(F)cc3)CC2)[C@@H](c2ccc(F)c(F)c2)N1	>300

species: Rattus norvegicus; assay: Evaluated for the inhibition of A61603-induced prostate contraction in rat; assay type: functional, Prostate gland; settings: not given

Structure (SMILES)	AD50 [µg/kg]
COCC1=C(C(=O)NCCCN2CCC(c3ccccn3)CC2)[C@@H](c2ccc(F)c(F)c2)NC(=O)N1	12
CC1=C(C(=O)NCCCN2CCC(c3ccc(F)cc3)CC2)[C@@H](c2ccc(F)c(F)c2)NC(=O)N1	1.8
CN1C=C(C(=O)NCCCN2CCC(C#N)(c3ccc(F)cc3)CC2)[C@@H](c2ccc(F)c(F)c2)NC1=O	14
CC1=C(C(=O)NCCCN2CCC(c3ccc(F)cc3C#N)CC2)[C@@H](c2ccc(F)c(F)c2)NC(=O)N1	1.5
O=C1NC=C(C(=O)NCCCN2CCC(c3ccc(F)cc3)CC2)[C@@H](c2ccc(F)c(F)c2)N1	2.2

species: Rattus norvegicus; assay: Duration of action with repeated challenges of A61603 agonist in rat; assay type: functional; settings: not given

Structure (SMILES)	Duration [h]
COCC1=C(C(=O)NCCCN2CCC(c3ccccn3)CC2)[C@@H](c2ccc(F)c(F)c2)NC(=O)N1	0.25
CC1=C(C(=O)NCCCN2CCC(c3ccc(F)cc3)CC2)[C@@H](c2ccc(F)c(F)c2)NC(=O)N1	0.5
CN1C=C(C(=O)NCCCN2CCC(C#N)(c3ccc(F)cc3)CC2)[C@@H](c2ccc(F)c(F)c2)NC1=O	4
CC1=C(C(=O)NCCCN2CCC(c3ccc(F)cc3C#N)CC2)[C@@H](c2ccc(F)c(F)c2)NC(=O)N1	1.5
O=C1NC=C(C(=O)NCCCN2CCC(c3ccc(F)cc3)CC2)[C@@H](c2ccc(F)c(F)c2)N1	0.5

species: Canis familiaris; assay: Evaluated for the inhibition of phenylephrine-induced contraction (SEM<10%) in dog.; assay type: functional, Canis lupus familiaris; settings: not given

Structure (SMILES)	IUP AD50 [µg/kg]
COc1cc2nc(N3CCN(C(=O)C4CCCO4)CC3)nc(N)c2cc1OC (stereo not drawn) [TERAZOSIN]	97

species: Canis familiaris; assay: Dose effecting a 20 mmHg change in diastolic blood pressure (SEM<10%) in dog.; assay type: functional, Canis lupus familiaris, Artery; settings: not given

Structure (SMILES)	DBP-20 [µg/kg]
COc1cc2nc(N3CCN(C(=O)C4CCCO4)CC3)nc(N)c2cc1OC (stereo not drawn) [TERAZOSIN]	74

species: Rattus norvegicus; assay: Duration of action with repeated challenges of A61603 agonist, n=4, data from each time point was averaged (SEM<10%) in rat.; assay type: functional; settings: not given

Structure (SMILES)	Duration [h]
CCOc1ccccc1OCCN[C@H](C)Cc1ccc(OC)c(S(N)(=O)=O)c1 [TAMSULOSIN]	3.5

species: Rattus norvegicus; assay: Evaluated for the inhibition of A61603-induced contraction; n=4 and data for each concentration was averaged (SEM<10%) in rat.; assay type: functional; settings: not given

Structure (SMILES)	AD50 [µg/kg]
COc1cc2nc(N3CCN(C(=O)C4CCCO4)CC3)nc(N)c2cc1OC (stereo not drawn) [TERAZOSIN]	52

species: Rattus norvegicus; assay: Inhibition of A61603-induced contraction; n=4 and data for each concentration was averaged (SEM<10%) in rat.; assay type: functional; settings: not given

Structure (SMILES)	AD50 [µg/kg]
CCOc1ccccc1OCCN[C@H](C)Cc1ccc(OC)c(S(N)(=O)=O)c1 [TAMSULOSIN]	3

system: not listed separately; assay: t1/2 in rat; assay type: ADME, organism-based; settings: in vivo

Structure (SMILES)	half-life [h]
COCC1=C(C(=O)NCCCN2CCC(c3ccccn3)CC2)[C@@H](c2ccc(F)c(F)c2)NC(=O)N1	7
CC1=C(C(=O)NCCCN2CCC(c3ccc(F)cc3)CC2)[C@@H](c2ccc(F)c(F)c2)NC(=O)N1	1.7
CN1C=C(C(=O)NCCCN2CCC(C#N)(c3ccc(F)cc3)CC2)[C@@H](c2ccc(F)c(F)c2)NC1=O	1.1
CC1=C(C(=O)NCCCN2CCC(c3ccc(F)cc3C#N)CC2)[C@@H](c2ccc(F)c(F)c2)NC(=O)N1	0.417
O=C1NC=C(C(=O)NCCCN2CCC(c3ccc(F)cc3)CC2)[C@@H](c2ccc(F)c(F)c2)N1	1
